The text below walks through data of patent US9512111B2, “N-sulfonylated tetrahydroquinolines and related bicyclic compounds for inhibition of RORγ activity and the treatment of disease” (Lycera Corporation, priority 2010, dated 2016).

The IC50 is the concentration that inhibits the measured activity by half. Read a low IC50 as inhibition by little substance.

One assay has as its target T1, RORγ-LBD (Homo sapiens, UniProt P51449).
T1 construct: HIS-tagged RORγ-LBD was recombinantly expressed in SF9 cells; made in house; host or cells: SF9 cells (baculovirus); unpurified lysate
T1 sequence (P51449 269-508 limits assumed): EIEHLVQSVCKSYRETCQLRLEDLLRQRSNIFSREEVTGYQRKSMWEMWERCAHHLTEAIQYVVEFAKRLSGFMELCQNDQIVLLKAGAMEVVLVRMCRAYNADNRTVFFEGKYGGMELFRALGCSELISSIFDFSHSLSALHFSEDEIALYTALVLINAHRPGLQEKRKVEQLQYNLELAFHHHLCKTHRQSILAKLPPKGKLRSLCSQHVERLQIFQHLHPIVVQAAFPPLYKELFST
Briefly: RORγ-Ligand Binding Domain TR-FRET Assay. Type of assay: biochemical. The following applies: benzoxazines, Table 9. Summed up:
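IC50 derived from the 665 nm/615 nm emission ratio after 4 h to overnight incubation. Mixture: Sf9 lysate with His-tagged LBD (~10 nM final, not purified), SRC1-2 LXXLL biotin peptide at 450 nM, 2 nM europium anti-His antibody, 60 nM APC-streptavidin; buffer 25 mM HEPES pH 7.0, 100 mM NaCl, 0.01% Tween, 0.1% BSA.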

A further assay concerns the target T2, RORγt (Homo sapiens, UniProt P51449).
T2 construct: The resulting GAL4-RORγt-LBD fusion construct was placed under the control of a constitutive cytomegalovirus (CMV) promoter; expressed in transfected cells; host or cells: HEK293
T2 sequence (P51449 269-508 limits assumed): T1 sequence (P51449 269-508 limits assumed)
Kind of assay: RORγ Reporter Assay (GAL4-UAS luciferase reporter in HEK293 cells). Type of assay: cell-based. The following applies: benzoxazines, Table 9; HEK cells. The protocol: Inhibition of RORγt in cells was determined using a GAL4-UAS reporter system in HEK293 cells employing a luciferase readout. The RORγt DNA binding domain (DBD) was replaced with the heterologous yeast GAL4 DBD using standard recombinant DNA methods. The resulting GAL4-RORγt-LBD fusion construct was placed under the control of a constitutive cytomegalovirus (CMV) promoter by cloning it into the CMV-driven mammalian expression vector pcDNA3.1+− (Promega Corporation, Madison, Wis.).
A transcriptional reporter expression construct was used to monitor GAL4-RORγ activity, which contained five copies of the GAL4 binding site enhancer (UAS) controlling expression of a firefly luciferase reporter. This construct, pGL4.31, is commercially available from Promega Corporation, Madison Wis. Both expression constructs were transfected in bulk into HEK-293 cells using standard lipid-based transfection techniques, which allowed the GAL4 RORγ-LBD fusion protein to drive expression of the luciferase reporter. Control transfections were performed with an empty pCDN3.1+ vector.
The next day, cells were plated into 384 well plates, test compound was added, and the plates were incubated overnight. […] Promega firefly assays kits were used to stabilize the luciferase signal, and the intensity of the luciferase signal was measured using an EnVision Multilabel Plate Reader (Perkin Elmer, Waltham, Mass.).
HEK 293 cells are transfected with GAL4-NR construct (CMV:NR-LBD in pcDNA3.1neo) and the pGL4.31 GAL4-luciferase reporter construct (Promega). For a background control, use empty pcDNA3.1neo and pGL4.31. Transfection protocol is for a single T75 flask performed with Minis Trans-It 293 reagent. A 60 μL aliquot of Trans-IT reagent at room temperature is added drop wise to 1.5 mL of Optimem (Invitrogen). The resulting solution is mixed by inversion and incubated for 5-20 minutes at room temperature. This reagent mixture is added to 10 μg of DNA (5 μg of each expression vector used at a concentration of 1 mg/mL). The solution is mixed by inversion and incubated at room temperature for 20 minutes.
While the Trans-IT reagent and DNA are incubating, harvest HEK-293 cells. Remove media from flasks via aspiration and add enough TrypLE Express (stable Trypsin-like reagent, Invitrogen) to cover the bottom of the flask. The mixture is incubated at room temperature until the cells are visibly loose in the flask (approximately 2-5 minutes). Add an equal volume of complete growth media, and then pipette to achieve a single cell suspension. Spin down 1×10^7 cells and re-suspend the cells in 10 mL of complete growth media (DMEM high glucose/10% dialyzed FBS/pen/strep; Invitrogen). The cells and transfection mixture are added to one T75 flask. The contents of the T75 flax are mixed and incubated overnight at 37° C. and 5% CO2.
After 16-24 hours, cells are harvested and plated for test compound screening. Cells may be harvested as described above. Next, cells are counted and an appropriate number of cells are spun down. Then, cells are aspirated and re-suspended in complete growth media at a concentration of 0.5×10^6 cells/mL to provide a cell suspension. Plate 20 μL of the cell suspension into a white, tissue-culture treated 384 well plate. (10,000 cells/well).
A 10 mM stock solution of test compound in dimethylsulfoxide (DMSO) was diluted to 500× the final test concentration in DMSO, then diluted to 5× the final test concentration with complete growth medium to provide the Test Compound Solution. The concentration of DMSO in the Test Compound Solution was […]. A 5 μL aliquot of Test Compound Solution was added to each test well in the 384 well plate previously plated with the cell suspension. Next, plates are spun briefly and incubated overnight at 37° C. and 5% CO2.
After 16-24 hours, the luciferase assay is performed. Plates and luciferase reagent (e.g. One-Glo® or Dual Glo®; Promega, Madison, Wis.) are brought to room temperature.
On the technique in general: A reporter such as luciferase makes a cellular process visible.

Regarding `CC(C)OCC1CN(S(=O)(=O)c2ccc(F)cc2)c2cc(NC(=O)c3c(Cl)cccc3C(F)(F)F)ccc2O1` (centres unmarked) [VI-123], the IC50 on RORγ-LBD and on RORγt was below 15 µM each time.
For `O=C(Nc1ccc2c(c1)N(S(=O)(=O)c1ccc(F)cc1)CC(CC(F)(F)F)O2)c1c(Cl)cccc1Cl` (centres unmarked) [VI-13], the IC50 at RORγ-LBD and on RORγt was below 15 µM throughout.
Take `O=C(Nc1ccc2c(c1)N(S(=O)(=O)c1ccc(F)cc1)C[C@@H](CO)O2)c1c(F)cccc1Cl` [VI-116]: the IC50 at RORγ-LBD and against RORγt was below 15 µM throughout.
`C[C@H]1CN(S(=O)(=O)c2ccc(F)cc2)c2cc(NC(=O)c3c(F)cccc3Cl)ccc2O1` [VI-1]: the IC50 on RORγ-LBD and on RORγt was below 15 µM each time.
With `CCOCC1CN(S(=O)(=O)c2ccc(F)c(F)c2)c2cc(NC(=O)c3c(F)cccc3Cl)ccc2O1` (centres unmarked) [VI-89], the IC50 at RORγ-LBD and against RORγt was below 15 µM in each case.
Take `O=C(Nc1ccc2c(c1)N(S(=O)(=O)c1ccc(F)cc1)CC(CC(F)(F)F)O2)c1c(F)cccc1C(F)(F)F` (centres unmarked) [VI-14]: the IC50 on RORγ-LBD and against RORγt was below 15 µM in each case.
Consider `CC(C)OCC1CN(S(=O)(=O)c2ccc(F)cc2)c2cc(NC(=O)c3c(F)cccc3Cl)ccc2O1` (centres unmarked) [VI-121], for which the IC50 at RORγ-LBD and against RORγt was below 15 µM each time.
In the case of `Cc1cccc(Cl)c1C(=O)Nc1ccc2c(c1)N(S(=O)(=O)c1cccc(C#N)c1)C[C@H](CO)O2` [VI-43], the IC50 on RORγ-LBD and against RORγt was below 15 µM each time.
Take `CCOCC1CN(S(=O)(=O)c2ccc(Cl)cc2)c2cc(NC(=O)c3c(F)cccc3Cl)ccc2O1` (centres unmarked) [VI-93]: the IC50 on RORγ-LBD and against RORγt was below 15 µM each time.
In the case of `O=C(Nc1ccc2c(c1)N(S(=O)(=O)c1ccc(F)cc1)CC(CNCC1CC1)O2)c1c(F)cccc1Cl` (centres unmarked) [VI-32], the IC50 on RORγ-LBD and against RORγt was below 15 µM each time.
Consider `O=C(Nc1ccc2c(c1)N(S(=O)(=O)c1ccc(Cl)cc1)C[C@H](CO)O2)c1c(F)cccc1C(F)(F)F` [VI-67], for which the IC50 at RORγ-LBD and at RORγt was below 15 µM each time.
Regarding `COCC1CN(S(=O)(=O)c2ccc(Cl)cc2)c2cc(NC(=O)c3c(F)cccc3F)ccc2O1` (centres unmarked) [VI-97], the IC50 on RORγ-LBD and against RORγt was below 15 µM each time.
Take `O=C(Nc1ccc2c(c1)N(S(=O)(=O)c1ccc(F)cc1)CC(CN(CC1CC1)CC1CC1)O2)c1c(F)cccc1Cl` (centres unmarked) [VI-37]: the IC50 on RORγ-LBD and on RORγt was below 15 µM each time.
For `COCC1CN(S(=O)(=O)c2ccc(F)c(F)c2)c2cc(NC(=O)Cc3ccc(F)cc3)ccc2O1` (centres unmarked) [VI-78], the IC50 on RORγ-LBD and at RORγt was below 15 µM throughout.
As to `COCC1CN(S(=O)(=O)c2ccc(F)c(F)c2)c2cc(NC(=O)c3c(F)cccc3Cl)ccc2O1` (centres unmarked) [VI-80], the IC50 at RORγ-LBD and on RORγt was below 15 µM in each case.
With `N#Cc1cccc(S(=O)(=O)N2C[C@H](CO)Oc3ccc(NC(=O)c4c(Cl)cccc4Cl)cc32)c1` [VI-63], the IC50 at RORγ-LBD and against RORγt was below 15 µM in each case.
Take `O=C(Nc1ccc2c(c1)N(S(=O)(=O)c1ccc(F)cc1)C[C@@H](CO)O2)c1c(Cl)cccc1C(F)(F)F` [VI-122]: the IC50 on RORγ-LBD and on RORγt was below 15 µM throughout.
On to `COCC1CN(S(=O)(=O)c2ccc(F)c(F)c2)c2cc(NC(=O)c3c(Cl)cccc3Cl)ccc2O1` (centres unmarked) [VI-70], for which the IC50 at RORγ-LBD and against RORγt was below 15 µM throughout.
With `O=C(Nc1ccc2c(c1)N(S(=O)(=O)c1ccc(Cl)cc1)C[C@H](CO)O2)c1c(Cl)cccc1Cl` [VI-85], the IC50 at RORγ-LBD and on RORγt was below 15 µM in each case.
`CCOCC1CN(S(=O)(=O)c2ccc(Cl)cc2)c2cc(NC(=O)c3c(F)cccc3F)ccc2O1` (centres unmarked) [VI-94]: the IC50 on RORγ-LBD and at RORγt was below 15 µM in each case.
For the compound `CCOCC1CN(S(=O)(=O)c2ccc(Cl)cc2)c2cc(NC(=O)c3c(Cl)cccc3C(F)(F)F)ccc2O1` (centres unmarked) [VI-90], the IC50 at RORγ-LBD and at RORγt was below 15 µM throughout.
Take `O=C(Nc1ccc2c(c1)N(S(=O)(=O)c1ccc(F)c(F)c1)C[C@@H](CO)O2)c1c(F)cccc1F` [VI-76]: the IC50 on RORγ-LBD and against RORγt was below 15 µM in each case.
Take `CCOCC1CN(S(=O)(=O)c2ccc(Cl)cc2)c2cc(NC(=O)c3c(Cl)cccc3Cl)ccc2O1` (centres unmarked) [VI-92]: the IC50 on RORγ-LBD and against RORγt was below 15 µM in each case.
Consider `O=C(Nc1ccc2c(c1)N(S(=O)(=O)c1ccc(Cl)cc1)C[C@H](CO)O2)c1c(F)cccc1F` [VI-87], for which the IC50 on RORγ-LBD and against RORγt was below 15 µM each time.
For the compound `Cc1nn(C(F)F)cc1S(=O)(=O)N1C[C@H](CO)Oc2ccc(NC(=O)c3c(Cl)cccc3C(F)(F)F)cc21` [VI-29], the IC50 on RORγ-LBD and against RORγt was below 15 µM in each case.
For `CCOCC1CN(S(=O)(=O)c2ccc(F)cc2)c2cc(NC(=O)c3c(Cl)cccc3Cl)ccc2O1` (centres unmarked) [VI-108], the IC50 at RORγ-LBD and against RORγt was below 15 µM throughout.
Consider `CC(=O)NCC1CN(S(=O)(=O)c2ccc(F)cc2)c2cc(NC(=O)c3c(F)cccc3Cl)ccc2O1` (centres unmarked) [VI-39], for which the IC50 at RORγ-LBD and against RORγt was below 15 µM each time.
Turning to `CCOCC1CN(S(=O)(=O)c2ccc(F)c(F)c2)c2cc(NC(=O)c3c(F)cccc3F)ccc2O1` (centres unmarked) [VI-99], the IC50 on RORγ-LBD and on RORγt was below 15 µM each time.
For `COCC1CN(S(=O)(=O)c2ccc(F)cc2)c2cc(NC(=O)c3c(Cl)cccc3C(F)(F)F)ccc2O1` (centres unmarked) [VI-104], the IC50 on RORγ-LBD and at RORγt was below 15 µM each time.
For the compound `N#Cc1cccc(S(=O)(=O)N2C[C@H](CO)Oc3ccc(NC(=O)c4c(F)cccc4C(F)(F)F)cc32)c1` [VI-62], the IC50 on RORγ-LBD and against RORγt was below 15 µM throughout.
Turning to `COCC1CN(S(=O)(=O)c2cccc(C#N)c2)c2cc(NC(=O)c3c(F)cccc3Cl)ccc2O1` (centres unmarked) [VI-101], the IC50 on RORγ-LBD and on RORγt was below 15 µM each time.
As to `Cc1nn(C(F)F)cc1S(=O)(=O)N1C[C@H](C)Oc2ccc(NC(=O)c3c(F)cccc3Cl)cc21` [VI-12], the IC50 at RORγ-LBD and against RORγt was below 15 µM each time.
As to `COc1ccc(S(=O)(=O)N2C[C@H](CO)Oc3ccc(NC(=O)c4c(F)cccc4C(F)(F)F)cc32)cn1` [VI-25], the IC50 on RORγ-LBD and at RORγt was below 15 µM throughout.
For the compound `CC(C)NCC1CN(S(=O)(=O)c2ccc(F)cc2)c2cc(NC(=O)c3c(F)cccc3Cl)ccc2O1` (centres unmarked) [VI-35], the IC50 on RORγ-LBD and at RORγt was below 15 µM in each case.
`CCOCC1CN(S(=O)(=O)c2ccc(F)c(F)c2)c2cc(NC(=O)c3c(Cl)cccc3Cl)ccc2O1` (centres unmarked) [VI-98]: the IC50 on RORγ-LBD and against RORγt was below 15 µM each time.
For `O=C(Nc1ccccc1Cl)c1ccc2c(c1)N(S(=O)(=O)c1ccc(F)cc1)CCO2` [VI-128], at RORγt, the IC50 was below 15 µM.
